Measurements as given in article PMC3553074 (PLoS ONE, 2013).

Target: Ft-MglA/Ft-SspA complex (Francisella tularensis, UniProt Q5NFG1+Q5NHJ6)
Sequence (Q5NFG1 1-205): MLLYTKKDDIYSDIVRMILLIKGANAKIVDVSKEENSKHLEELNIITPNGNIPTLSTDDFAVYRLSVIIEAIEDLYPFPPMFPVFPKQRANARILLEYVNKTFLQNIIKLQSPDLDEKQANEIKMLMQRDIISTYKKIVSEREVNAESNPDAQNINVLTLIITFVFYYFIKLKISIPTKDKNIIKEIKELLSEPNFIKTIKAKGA
Sequence (Q5NHJ6 1-210): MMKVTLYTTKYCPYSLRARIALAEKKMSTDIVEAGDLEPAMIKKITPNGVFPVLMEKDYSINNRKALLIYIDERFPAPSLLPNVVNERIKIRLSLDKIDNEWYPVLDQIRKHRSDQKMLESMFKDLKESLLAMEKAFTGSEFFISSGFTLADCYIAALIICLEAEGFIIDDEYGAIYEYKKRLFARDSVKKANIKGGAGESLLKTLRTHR

CCN(CC)CCCC(C)Nc1c2ccc(Cl)cc2nc2ccc(OC)cc12 (stereo not shown) [quinacrine]
ΔTm (Tm1): 24.0 °C
